Results on 1 compound are retold here after patent US10517853B2, “Methods for treating epilepsy” (PTC Therapeutics, Inc., priority 2015, dated 2019).

In one series the target is T1, CYP2C8 (Homo sapiens, UniProt P10632).
T1 sequence (P10632 1-490): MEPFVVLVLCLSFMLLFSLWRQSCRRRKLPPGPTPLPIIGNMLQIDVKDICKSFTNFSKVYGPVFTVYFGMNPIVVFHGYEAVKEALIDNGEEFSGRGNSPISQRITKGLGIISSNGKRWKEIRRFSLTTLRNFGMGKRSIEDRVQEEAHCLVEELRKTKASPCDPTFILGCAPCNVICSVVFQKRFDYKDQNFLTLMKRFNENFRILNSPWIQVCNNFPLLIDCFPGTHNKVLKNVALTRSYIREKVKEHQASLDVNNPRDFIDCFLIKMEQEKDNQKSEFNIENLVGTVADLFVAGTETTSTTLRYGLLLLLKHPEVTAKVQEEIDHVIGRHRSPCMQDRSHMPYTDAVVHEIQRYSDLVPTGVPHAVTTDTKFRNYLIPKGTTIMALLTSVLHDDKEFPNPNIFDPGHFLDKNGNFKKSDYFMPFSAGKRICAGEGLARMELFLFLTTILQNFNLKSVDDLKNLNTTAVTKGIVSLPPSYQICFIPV
Kind of series: CYP2C8 inhibition. The series is classed as in vitro ADME.

In series [1] the test system is CDKL5 nonsense mutation R550X (UGA premature stop). As to the kind of experiment: Luciferase reporter readthrough assay, CDKL5 nonsense mutation R550X construct in 293H cells. In kind it is cell-based. The note with it: 293H cells transfected with construct CDKL5-R550X; decreasing concentrations starting at 3 uM; 24 hours; FIG. 5. From the text:
(§1) Luciferase reporter constructs were generated to evaluate readthrough activity of compounds at premature stop codons present in SCN1A and CDKL5 mRNA sequences. FIG. 1 is a schematic of the reporter construct used to monitor readthrough activity of SCN1A nonsense mutation W192X (UAG premature stop). FIG. 2 is a schematic of the reporter construct used to monitor readthrough activity of CDKL5 nonsense mutation R59X (UGA premature stop). FIG. 3 is a schematic of the reporter construct used to monitor readthrough activity of CDKL5 nonsense mutation R550X (UGA premature stop). In each of the constructs, luciferase reporter is flanked by a 3XHA epitope tag at the amino-terminus and a FLAG epitope tag at the C-terminus. An intron from the TPI gene was inserted in the luciferase gene. Sequences from SCN1A (see FIG. 1) and CDKL5 (see FIGS. 2 and 3) harboring disease-associated nonsense mutations were introduced in-frame with the reporter sequence such that readthrough at the premature stop codon results in the production of a functional luciferase protein.
(§2) 293H cells were transfected with either construct SCN1A-Trp192x (FIG. 1), construct CDKL5-R59X (FIG. 2), or construct CDKL5-R550X (FIG. 3). […] The ability of ataluren to promote readthrough at the premature stop codon in each of the constructs was measured and reported as the relative light units (y-axis). […]
(In general: In a reporter assay the amount or activity of a reporter protein is the signal.)

In series [2] the test system is SCN1A nonsense mutation W192X (UAG premature stop). Kind of series: Luciferase reporter readthrough assay, SCN1A nonsense mutation W192X construct in 293H cells. The conditions noted are these: 293H cells transfected with construct SCN1A-Trp192x; decreasing concentrations starting at 3 uM; 24 hours; FIG. 4. The series is classed as cell-based.
From the text: as §1, §2

Series [3] deals with CDKL5 nonsense mutation R59X (UGA premature stop). Kind of series: Luciferase reporter readthrough assay, CDKL5 nonsense mutation R59X construct in 293H cells. The note with it: 293H cells transfected with construct CDKL5-R59X; decreasing concentrations starting at 3 uM; 24 hours; FIG. 5. The series is classed as cell-based.
From the text: as §1, §2

A further series deals with CYP2C9 (Homo sapiens, UniProt P11712). Kind of series: CYP2C9 inhibition. The series is classed as in vitro ADME.
Sequence of CYP2C9 (P11712 whole entry): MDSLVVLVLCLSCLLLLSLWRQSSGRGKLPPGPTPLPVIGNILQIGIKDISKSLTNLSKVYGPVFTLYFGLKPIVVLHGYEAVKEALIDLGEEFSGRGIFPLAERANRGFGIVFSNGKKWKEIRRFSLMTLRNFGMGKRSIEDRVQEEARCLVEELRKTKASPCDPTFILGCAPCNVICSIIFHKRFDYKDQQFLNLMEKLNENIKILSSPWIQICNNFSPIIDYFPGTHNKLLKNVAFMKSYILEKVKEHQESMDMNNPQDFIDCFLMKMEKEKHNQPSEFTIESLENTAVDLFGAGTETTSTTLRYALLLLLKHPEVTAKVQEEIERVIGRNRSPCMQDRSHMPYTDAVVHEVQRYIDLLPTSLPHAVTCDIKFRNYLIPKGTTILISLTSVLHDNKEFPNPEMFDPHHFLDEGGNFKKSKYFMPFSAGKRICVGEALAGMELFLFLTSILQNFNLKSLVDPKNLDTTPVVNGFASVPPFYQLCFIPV

On to `O=C(O)c1cccc(-c2noc(-c3ccccc3F)n2)c1` [ataluren, 3-[5-(2-fluoro-phenyl)-[1,2,4]oxadiazol-3-yl]-benzoic acid], for which the “inhibition of CYP2C8” value at CYP2C8 is recorded as “weak inhibitor”. For the same compound, the “readthrough at the premature stop codon (luciferase, relative light units; fold increase compared to DMSO)” value in series [1], in series [2] and in series [3] was “promotes concentration-dependent readthrough” each time. Moreover, the “inhibition of CYP2C9” value at CYP2C9 is “weak inhibitor”.
